The values below are quoted from earlier work in patent publication US8575191B2, “Methods for treatment of non-small cell lung cancer” (priority 2010, dated 2013).

This series relates to NSCLC.

Consider `C#Cc1cccc(Nc2ncnc3cc(OCCOC)c(OCCOC)cc23)c1` [erlotinib], for which, where the note is “adenocarcinoma”, the “survival HR compared to placebo” value is 0.8. Besides, the response rate (unselected NSCLC patients previously treated with chemotherapy) is 9%.
